Tests used:
[1] = target: T1, hA1AR (Homo sapiens, UniProt P30542); test: Competition binding, [3H]DPCPX, hA1 CHO cell membranes; settings: displacement of [3H]DPCPX, hA1 CHO cells; mean ± SEM of four assays
T1 construct: host or cells: CHO cells
T1 sequence (P30542 1-326): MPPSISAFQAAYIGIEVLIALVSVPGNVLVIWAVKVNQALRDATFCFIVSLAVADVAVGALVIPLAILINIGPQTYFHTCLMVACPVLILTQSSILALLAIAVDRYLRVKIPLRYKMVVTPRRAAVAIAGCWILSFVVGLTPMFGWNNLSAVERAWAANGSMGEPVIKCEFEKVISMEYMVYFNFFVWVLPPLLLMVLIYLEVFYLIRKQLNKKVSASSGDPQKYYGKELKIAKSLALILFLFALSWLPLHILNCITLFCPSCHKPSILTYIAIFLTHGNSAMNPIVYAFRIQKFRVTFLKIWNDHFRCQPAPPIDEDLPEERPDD
Method: (§1) CHO cells transfected with hA1, hA2A, hA2B and hA3 ARs (Perkin Elmer, Boston, MA, USA) were grown adherently and maintained in Dulbecco’s modified Eagle’s medium with nutrient mixture F12, containing 10% fetal calf serum, penicillin (100 U/mL), streptomycin (100 μg/mL), L-glutamine (2 mM) and geneticine (G418; 0.2 mg/mL), at 37 °C, in 5% CO2/95% air, until their use in cAMP assays. For membrane preparation, the culture medium was removed, and the cells were washed with phosphate-buffered saline and scraped off T75 flasks in ice-cold hypotonic buffer (5 mM Tris HCl, 1 mM EDTA, pH 7.4). The cell suspension was homogenized with a Polytron, centrifuged for 30 min at 40,000× g, at 4 °C, and the resulting membrane pellet was used for competition binding experiments.
All synthesized compounds were tested for their affinity to hA1, hA2A and hA3 ARs. Competition experiments to hA1AR were carried out by incubating 1 nM [^3H]-8-cyclopentyl-1,3-dipropylxanthine ([^3H]-DPCPX) with membrane suspension (50 μg of protein/100 μL) and different concentrations of the examined compounds at 25 °C for 90 min in 50 mM Tris HCl, pH 7.4. Non-specific binding was defined as binding in the presence of 1 μM DPCPX and was always <10% of the total binding. Inhibition experiments to hA2A ARs were performed by incubating the radioligand [^3H]-4-(-2-[7-amino-2-{2-furyl}{1,2,4}triazolo{2,3-a} {1,3,5}triazin-5-yl-amino]ethyl)phenol ([^3H]-ZM241385) (1 nM) with the membrane suspension (50 μg of protein/100 μL) and different concentrations of the examined compounds for 60 min, at 4 °C, in 50 mM Tris HCl (pH 7.4), 10 mM MgCl2. Non-specific binding was determined in the presence of ZM241385 (1 μM) and was about 20% of the total binding. Competition binding experiments to A3ARs were carried out by incubating the membrane suspension (50 μg of protein/100 μL) with 0.5 nM [^125I]-N6-(4-aminobenzyl)-N-methylcarboxamidoadenosine ([^125I]-ABMECA) in the presence of different concentrations of the examined compounds for an incubation time of 120 min, at 4 °C, in 50 mM Tris HCl (pH 7.4), 10 mM MgCl2, 1 mM EDTA. Non-specific binding was defined as binding in the presence of 1 μM ABMECA and was always <10% of the total binding. Bound and free radioactivity were separated by filtering the assay mixture through Whatman GF/B glass-fiber filters, using a Brandel cell harvester (Brandel Instruments, Unterföhring, Germany). The filter bound radioactivity was counted by Packard Tri Carb 2810 TR scintillation counter (Perkin Elmer).
The protein concentration was determined according to a Bio-Rad method, with bovine albumin as a standard reference. Inhibitory binding constant (Ki) values were calculated from those of IC50 according to the Cheng–Prusoff equation, Ki = IC50/(1 + [C*]/KD*), where [C*] is the concentration of the radioligand, and KD* its dissociation constant. Ki and IC50 values were calculated by non-linear regression analysis, using the equation for a sigmoid concentration-response curve (Graph-PAD Prism, San Diego, CA, USA).

[2] = target: T1, hA1AR; test: Modulation of Forskolin-stimulated cAMP levels in hA1 CHO cells; type: cell-based; settings: for EC50: footnote c, mean ± SEM of four experiments, read-out: hA1AR EC50 or IC50, potency to modulate Forskolin-stimulated cAMP levels; for hA1AR Efficacy: normalized: CCPA full agonist = 100%, DPCPX inverse agonist = −100%; for hA1AR Profile: pharmacological profile in cAMP assay
Method: (§2) The amino-3,5-dicyanopyridines 1–21 were tested for their affinity at hA1, hA2A and hA3 ARs, stably transfected in Chinese Hamster Ovary (CHO) cells. Moreover, they were also studied as hA2B agonists by evaluating their stimulatory effect on cAMP production in CHO cells, stably expressing the hA2B AR. […] Due to their interesting pan profile, both compounds 1 and 5 were evaluated as AR agonists also at the hA2A and hA3 subtypes.
as §1
(§3) CHO cells transfected with hAR subtypes were washed with phosphate-buffered saline, detached with tripsine and centrifuged for 10 min at 200× g. Cells were seeded in a 96-well white half-area microplate (Perkin Elmer, Boston, USA) in a stimulation buffer composed of Hank Balanced Salt Solution, 5 mM HEPES, 0.5 mM Ro 20–1724, 0.1% BSA. The cAMP levels were then quantified by using the AlphaScreen cAMP Detection Kit (Perkin Elmer, Boston, MA, USA), following the manufacturer’s instructions. At the end of the experiments, the plates were read with a Perkin Elmer EnSight Multimode Plate Reader.

[3] = target: T2, hA3AR (Homo sapiens, UniProt P0DMS8); test: Modulation of Forskolin-stimulated cAMP levels in hA3 CHO cells; type: cell-based; settings: for IC50: cAMP assay, hA3 CHO cells, read-out: hA3AR IC50, potency to modulate Forskolin-stimulated cAMP levels; for hA3AR Efficacy: normalized: 2-Cl-IB-MECA full agonist = 100%
T2 construct: host or cells: CHO cells
T2 sequence (P0DMS8 1-318): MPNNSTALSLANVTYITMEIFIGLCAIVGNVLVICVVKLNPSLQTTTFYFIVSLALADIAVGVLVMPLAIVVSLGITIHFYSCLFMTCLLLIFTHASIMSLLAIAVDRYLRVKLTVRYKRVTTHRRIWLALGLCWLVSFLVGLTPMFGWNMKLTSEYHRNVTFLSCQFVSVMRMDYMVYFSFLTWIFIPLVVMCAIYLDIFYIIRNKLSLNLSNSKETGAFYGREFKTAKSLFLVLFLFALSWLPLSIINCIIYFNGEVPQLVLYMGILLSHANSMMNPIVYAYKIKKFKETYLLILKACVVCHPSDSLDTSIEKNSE
Method: as §2, §1, §3

Structure (SMILES) | Ki [1] [µM] | EC50 [2] [µM] | hA1AR Efficacy [2] [%] | hA1AR Profile [2] | IC50 [3] [µM] | hA3AR Efficacy [3] [%]
N#Cc1c(N)nc(SCc2ncc[nH]2)c(C#N)c1-c1cccs1 [Compound 5, 2-Amino-6-[(1H-imidazol-2-ylmethyl)sulfanyl]-4-(thiophen-2-yl)pyridine-3,5-dicarbonitrile] | 0.0025 ± 0.0002 | 0.00195 ± 0.00016 | 75 ± 5 | Partial Agonist | 0.033 ± 0.002 | 34 ± 3
N#Cc1c(N)nc(SCc2ncc[nH]2)c(C#N)c1-c1ccco1 [Compound 1, 2-Amino-4-(furan-2-yl)-6-[(1H-imidazol-2-ylmethyl)sulfanyl]pyridine-3,5-dicarbonitrile] | 0.00963 ± 0.00161 | 0.0122 ± 0.0012 | 31 ± 3 | Partial Agonist | 0.068 ± 0.006 | 45 ± 4

Reference: article PMC9024521, “4-Heteroaryl Substituted Amino-3,5-Dicyanopyridines as New Adenosine Receptor Ligands: Novel Insights on Structure-Activity Relationships and Perspectives” (Pharmaceuticals, 2022)
